Experimental data published in PubChem BioAssay (NCI).
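Tested at 5 concentrations; 48 h exposure; 96-well plates; endpoints linearly interpolated, else capped at highest concentration. At the TGI there is no net growth.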

How the values were obtained:
Assay in all cases: NCI anticancer screen, dose series, 48 h
TK-10 renal = tested on: TK-10 renal
MALME-3M melanoma = tested on: MALME-3M melanoma
SW-620 colon = tested on: SW-620 colon
SNB-19 CNS = tested on: SNB-19 CNS
K-562 leukemia = tested on: K-562 leukemia
HCC-2998 colon = tested on: HCC-2998 colon
RPMI-8226 leukemia = tested on: RPMI-8226 leukemia
MCF7 breast = tested on: MCF7 breast
A549 NSCLC = tested on: A549 NSCLC
COLO 205 colon = tested on: COLO 205 colon
SK-OV-3 ovarian = tested on: SK-OV-3 ovarian
MDA-MB-231 breast = tested on: MDA-MB-231 breast
NCI-H23 lung = tested on: NCI-H23 lung
HT29 colon = tested on: HT29 colon
SNB-75 CNS = tested on: SNB-75 CNS
UACC-62 melanoma = tested on: UACC-62 melanoma
CAKI-1 renal = tested on: CAKI-1 renal
A498 renal = tested on: A498 renal
BT-549 breast = tested on: BT-549 breast

SMILES: O=C1c2cscc2C(=O)c2c(OCc3ccccc3)ccc(OCc3ccccc3)c21
- TGI (TK-10 renal): > 100 µM
- TGI (MALME-3M melanoma): > 100 µM
- TGI (SW-620 colon): > 100 µM
- TGI (SNB-19 CNS): > 100 µM
- TGI (K-562 leukemia): > 100 µM
- TGI (HCC-2998 colon): > 100 µM
- TGI (RPMI-8226 leukemia): > 100 µM
- TGI (MCF7 breast): > 100 µM
- TGI (A549 NSCLC): > 100 µM
- TGI (COLO 205 colon): > 100 µM
- TGI (SK-OV-3 ovarian): > 100 µM
- TGI (MDA-MB-231 breast): > 100 µM
- TGI (NCI-H23 lung): > 100 µM
- TGI (HT29 colon): > 100 µM
- TGI (SNB-75 CNS): > 100 µM
- TGI (UACC-62 melanoma): > 100 µM
- TGI (CAKI-1 renal): > 100 µM

SMILES: COC1CC(n2ccc(=O)[nH]c2=O)OC1CO (stereo not given)
- TGI (MALME-3M melanoma): > 100 µM
- TGI (SW-620 colon): > 100 µM
- TGI (SNB-19 CNS): > 100 µM
- TGI (K-562 leukemia): > 100 µM
- TGI (HCC-2998 colon): > 100 µM
- TGI (MCF7 breast): > 100 µM
- TGI (A549 NSCLC): > 100 µM
- TGI (COLO 205 colon): > 100 µM
- TGI (SK-OV-3 ovarian): > 100 µM
- TGI (MDA-MB-231 breast): > 100 µM
- TGI (NCI-H23 lung): > 100 µM
- TGI (A498 renal): > 100 µM
- TGI (HT29 colon): > 100 µM
- TGI (UACC-62 melanoma): > 100 µM
- TGI (CAKI-1 renal): > 100 µM

SMILES: CC(=O)[C@]1(C)[C@H](C)O[C@](C)(CO)[C@H]1O[Si](C)(C)c1ccccc1
- TGI (TK-10 renal): > 100 µM
- TGI (MALME-3M melanoma): > 100 µM
- TGI (SW-620 colon): > 100 µM
- TGI (SNB-19 CNS): > 100 µM
- TGI (K-562 leukemia): > 100 µM
- TGI (HCC-2998 colon): > 100 µM
- TGI (RPMI-8226 leukemia): > 100 µM
- TGI (MCF7 breast): > 100 µM
- TGI (A549 NSCLC): > 100 µM
- TGI (COLO 205 colon): > 100 µM
- TGI (SK-OV-3 ovarian): > 100 µM
- TGI (MDA-MB-231 breast): > 100 µM
- TGI (NCI-H23 lung): 81 µM
- TGI (A498 renal): > 100 µM
- TGI (HT29 colon): > 100 µM
- TGI (SNB-75 CNS): > 100 µM
- TGI (UACC-62 melanoma): > 100 µM
- TGI (CAKI-1 renal): 54.2 µM

SMILES: Cc1cc(S(=O)(=O)Nc2nc(N)nc(N(C)C)n2)c(SC(C(=O)O)c2ccccc2)cc1Cl (stereo not given)
- TGI (TK-10 renal): > 10 µM
- TGI (MALME-3M melanoma): > 10 µM
- TGI (SW-620 colon): > 10 µM
- TGI (SNB-19 CNS): > 10 µM
- TGI (K-562 leukemia): > 10 µM
- TGI (HCC-2998 colon): > 10 µM
- TGI (BT-549 breast): > 10 µM
- TGI (RPMI-8226 leukemia): > 10 µM
- TGI (MCF7 breast): > 10 µM
- TGI (A549 NSCLC): > 10 µM
- TGI (COLO 205 colon): > 10 µM
- TGI (SK-OV-3 ovarian): > 10 µM
- TGI (NCI-H23 lung): > 10 µM
- TGI (A498 renal): > 10 µM
- TGI (HT29 colon): > 10 µM
- TGI (SNB-75 CNS): > 10 µM
- TGI (CAKI-1 renal): > 10 µM

SMILES: CC1C(=O)CC[C@@]2(C)C(=O)CCCC12O (stereo not given in full)
- TGI (TK-10 renal): > 100 µM
- TGI (MALME-3M melanoma): > 100 µM
- TGI (SW-620 colon): > 100 µM
- TGI (SNB-19 CNS): > 100 µM
- TGI (K-562 leukemia): > 100 µM
- TGI (HCC-2998 colon): > 100 µM
- TGI (RPMI-8226 leukemia): > 100 µM
- TGI (MCF7 breast): > 100 µM
- TGI (A549 NSCLC): > 100 µM
- TGI (COLO 205 colon): > 100 µM
- TGI (SK-OV-3 ovarian): > 100 µM
- TGI (MDA-MB-231 breast): > 100 µM
- TGI (NCI-H23 lung): > 100 µM
- TGI (A498 renal): > 100 µM
- TGI (HT29 colon): > 100 µM
- TGI (UACC-62 melanoma): > 100 µM
- TGI (CAKI-1 renal): > 100 µM

SMILES: N#CC1C(=O)NC2=C(CCOc3c2ccc2ccccc32)C1c1ccc(F)cc1 (stereo not given)
- TGI (TK-10 renal): 43.2 µM
- TGI (MALME-3M melanoma): 79 µM
- TGI (SW-620 colon): > 100 µM
- TGI (SNB-19 CNS): 52.7 µM
- TGI (K-562 leukemia): > 100 µM
- TGI (HCC-2998 colon): 59.9 µM
- TGI (BT-549 breast): > 100 µM
- TGI (MCF7 breast): > 100 µM
- TGI (A549 NSCLC): > 100 µM
- TGI (COLO 205 colon): > 100 µM
- TGI (SK-OV-3 ovarian): 55 µM
- TGI (NCI-H23 lung): 74 µM
- TGI (A498 renal): 44.1 µM
- TGI (SNB-75 CNS): 54 µM
- TGI (CAKI-1 renal): 71.4 µM

SMILES: N#Cc1nc(NC(=O)c2ccccc2)sc1N
- TGI (TK-10 renal): > 10 µM
- TGI (MALME-3M melanoma): > 10 µM
- TGI (SW-620 colon): > 10 µM
- TGI (SNB-19 CNS): > 10 µM
- TGI (K-562 leukemia): > 10 µM
- TGI (HCC-2998 colon): > 10 µM
- TGI (RPMI-8226 leukemia): > 10 µM
- TGI (MCF7 breast): > 10 µM
- TGI (A549 NSCLC): > 10 µM
- TGI (COLO 205 colon): > 10 µM
- TGI (SK-OV-3 ovarian): > 10 µM
- TGI (MDA-MB-231 breast): > 10 µM
- TGI (NCI-H23 lung): > 10 µM
- TGI (A498 renal): > 10 µM
- TGI (HT29 colon): > 10 µM
- TGI (SNB-75 CNS): > 10 µM
- TGI (UACC-62 melanoma): > 10 µM
- TGI (CAKI-1 renal): > 10 µM

SMILES: COc1cc(S(=O)(=O)Nc2ccc(-c3csc(/N=C\C=C\c4ccccc4)n3)cc2)ccc1Cl
- TGI (TK-10 renal): > 100 µM
- TGI (MALME-3M melanoma): > 100 µM
- TGI (SW-620 colon): > 100 µM
- TGI (SNB-19 CNS): > 100 µM
- TGI (K-562 leukemia): > 100 µM
- TGI (HCC-2998 colon): > 100 µM
- TGI (BT-549 breast): > 100 µM
- TGI (RPMI-8226 leukemia): > 100 µM
- TGI (MCF7 breast): > 100 µM
- TGI (A549 NSCLC): > 100 µM
- TGI (COLO 205 colon): > 100 µM
- TGI (SK-OV-3 ovarian): > 100 µM
- TGI (NCI-H23 lung): > 100 µM
- TGI (A498 renal): 50.5 µM
- TGI (HT29 colon): > 100 µM
- TGI (SNB-75 CNS): > 100 µM
- TGI (UACC-62 melanoma): > 100 µM
- TGI (CAKI-1 renal): > 100 µM

SMILES: CSC1CC2C(CC1(C)SC)C2(C)C (stereo not given)
- TGI (TK-10 renal): > 100 µM
- TGI (MALME-3M melanoma): > 100 µM
- TGI (SW-620 colon): > 100 µM
- TGI (SNB-19 CNS): > 100 µM
- TGI (K-562 leukemia): 81.8 µM
- TGI (HCC-2998 colon): > 100 µM
- TGI (RPMI-8226 leukemia): 93.4 µM
- TGI (A549 NSCLC): > 100 µM
- TGI (COLO 205 colon): > 100 µM
- TGI (SK-OV-3 ovarian): > 100 µM
- TGI (NCI-H23 lung): > 100 µM
- TGI (A498 renal): > 100 µM
- TGI (HT29 colon): > 100 µM
- TGI (SNB-75 CNS): 83.9 µM
- TGI (UACC-62 melanoma): > 100 µM
- TGI (CAKI-1 renal): > 100 µM

SMILES: O=c1[nH]c(=O)n(C2OC(CO)C(O)C2O)cc1OCc1ccccc1 (stereo not given)
- TGI (TK-10 renal): > 100 µM
- TGI (MALME-3M melanoma): > 100 µM
- TGI (SW-620 colon): > 71.8 µM
- TGI (SNB-19 CNS): > 100 µM
- TGI (K-562 leukemia): > 100 µM
- TGI (HCC-2998 colon): > 100 µM
- TGI (RPMI-8226 leukemia): > 73.3 µM
- TGI (A549 NSCLC): > 100 µM
- TGI (COLO 205 colon): > 85.2 µM
- TGI (SK-OV-3 ovarian): > 100 µM
- TGI (NCI-H23 lung): > 100 µM
- TGI (A498 renal): > 100 µM
- TGI (HT29 colon): > 100 µM
- TGI (SNB-75 CNS): > 100 µM
- TGI (UACC-62 melanoma): > 100 µM
- TGI (CAKI-1 renal): > 100 µM

SMILES: COc1cc2c(cc1OC)C1(c3ccccc3)ON=C(c3ccccc3)N1CS2 (stereo not given)
- TGI (TK-10 renal): > 100 µM
- TGI (MALME-3M melanoma): > 100 µM
- TGI (SW-620 colon): > 100 µM
- TGI (SNB-19 CNS): > 100 µM
- TGI (K-562 leukemia): > 100 µM
- TGI (HCC-2998 colon): > 100 µM
- TGI (RPMI-8226 leukemia): > 100 µM
- TGI (A549 NSCLC): > 100 µM
- TGI (COLO 205 colon): > 100 µM
- TGI (SK-OV-3 ovarian): > 100 µM
- TGI (NCI-H23 lung): > 100 µM
- TGI (A498 renal): > 100 µM
- TGI (HT29 colon): > 100 µM
- TGI (SNB-75 CNS): > 100 µM
- TGI (UACC-62 melanoma): > 100 µM
- TGI (CAKI-1 renal): > 100 µM

SMILES: O=c1nc(-c2ccccc2)scc1-c1ccccc1
- TGI (TK-10 renal): > 100 µM
- TGI (MALME-3M melanoma): > 100 µM
- TGI (SW-620 colon): > 100 µM
- TGI (SNB-19 CNS): > 100 µM
- TGI (K-562 leukemia): > 100 µM
- TGI (RPMI-8226 leukemia): > 100 µM
- TGI (A549 NSCLC): > 100 µM
- TGI (COLO 205 colon): > 100 µM
- TGI (SK-OV-3 ovarian): > 100 µM
- TGI (NCI-H23 lung): > 100 µM
- TGI (HT29 colon): > 100 µM
- TGI (SNB-75 CNS): > 100 µM
- TGI (UACC-62 melanoma): > 100 µM
- TGI (CAKI-1 renal): > 100 µM

SMILES: CC(=O)O[C@]12CCCCC1C1(O)C(O)CCCC[C@H]12 (stereo not given in full)
- TGI (TK-10 renal): > 100 µM
- TGI (MALME-3M melanoma): > 100 µM
- TGI (SW-620 colon): > 100 µM
- TGI (SNB-19 CNS): > 100 µM
- TGI (K-562 leukemia): > 100 µM
- TGI (RPMI-8226 leukemia): > 100 µM
- TGI (A549 NSCLC): > 100 µM
- TGI (COLO 205 colon): > 100 µM
- TGI (SK-OV-3 ovarian): > 100 µM
- TGI (NCI-H23 lung): > 100 µM
- TGI (HT29 colon): > 100 µM
- TGI (SNB-75 CNS): > 100 µM
- TGI (UACC-62 melanoma): > 100 µM
